Row | Compound | melting point [°C]
1 | CCOc1c(C)c(C)c(O)c(CNCCOc2cc(C)ccc2C(C)C)c1C | 99 to 101
2 | C=CCOc1c(N)cc2c(C)cc(=O)oc2c1C | 146 to 147
3 | COC(=O)c1ccc(OC)cc1S(=O)(=O)Cl | 69 to 72
4 | C=CCN1C2CCC3C1CCC2N3C(c1ccc(C(=O)N2CCCCC2)cc1)c1cccc(OC)c1 (centres undefined) | 94 to 96
5 | CCOC(=O)C(C(=O)OCC)c1csc(N)n1 | 99.5 to 100
6 | N#CCc1ccc(Cl)nc1 | 80
7 | CC1(Br)CCc2cc3c(cc2C1=O)CCO3 (centres undefined) | 95 to 98
8 | COC(=O)c1cc(S(C)(=O)=O)c(Br)cc1C | 150
9 | c1cncc(C2CCCCS2)c1 (racemic) | 49
10 | NC(=S)N1CCN(c2nc3cccccc-3n2)CC1 | 245 to 247
11 | CC(=O)OC1C(C)OC(OC(=N)C(Cl)(Cl)Cl)C(OC(C)=O)C1OC(C)=O (centres undefined) | 60 to 63
12 | Nc1sc2c(c1C(=O)c1ccc(Cl)s1)CCCC2 | 173 to 175
13 | COC(=O)C1CCc2sccc2C1=O (centres undefined) | 85 to 86
14 | COc1cc(Cc2nccc3c(OC(C)=O)cc(OC(C)=O)cc23)cc(OC)c1OC | 118 to 120
15 | COP(=O)(Cc1ccc(-c2ccccc2)cc1)OC | 70 to 71
16 | COc1ccc(-c2nc(C(OC)(C(F)(F)F)C(F)(F)F)[nH]c2-c2ccc(OC)cc2)cc1 | 129 to 131
17 | CC(C)C1Cc2ccccc2P1c1ccccc1P1c2ccccc2CC1C(C)C (single isomer, unassigned; (+)) | 70 to 71
18 | CC(C)(C)C(=O)Nc1cc(Cl)ccc1Cl | 74 to 76
19 | COc1ccc([N+](=O)[O-])c2nccc(Cl)c12 | 125 to 138
20 | COc1ccccc1NC(C)C(=O)O (centres undefined) | 205 to 208
21 | CC(C)NC(Nc1cc(C(F)(F)F)cc(C(F)(F)F)c1)=C(C#N)S(=O)(=O)c1ccc(Cl)cc1 | 197 to 198
22 | COC(=O)c1sccc1S(=O)(=O)NC(=O)Nc1nc(OC)cc(OC)n1 | 191 to 193
23 | CC(C)=NNc1nc(C(Cl)(Cl)Cl)ns1 | 66
24 | O=C1CCc2c(Br)cccc2C1 | 62

Row | Compound | melting point [°C]
25 | Cn1ccnc1C(C)(C)O | 128 to 129
26 | O=c1cc(C(F)(F)F)ccn1-c1c(Cl)cc(CF)cc1Cl | 121 to 122
27 | Cc1nnc2n1-c1sc(C(C)OC(=O)C=Cc3ccccc3)cc1C(c1ccccc1Cl)=NC2 (centres undefined) | 122 to 125
28 | CCOC(=O)c1ccc(OC(=O)CCCC(=O)Oc2ccc(C(=O)OCC)cc2)cc1 | 81 to 82
29 | CCOC(=O)c1nc(C)cc(C#N)c1C | 55.5
30 | CC(C)NC1=NS(=O)(=O)c2sc(Cl)cc2N1 | 281 to 283
31 | OCc1ccc(CO)c(Br)c1 | 104
32 | CCOC(=O)COc1ccc(CBr)cc1 | 44 to 45
33 | COc1cc(N)c(Cl)cc1C(=O)NC1CCN(C(C)CC(C(=O)N(C)C)(c2ccccc2)c2ccccc2)CC1O (centres undefined) | 132
34 | CC[C@H](C)OC(=O)COc1ccc(C(=O)[C@H](COC(C)(C)C)NC(=O)c2ccc(C(=N)NC(=O)OC(C)(C)C)cc2)cc1 | 85 to 87
35 | COc1ccc(CC(NC(=O)OCc2ccccc2)C(=O)C=[N+]=[N-])cc1 (centres undefined) | 88 to 90
36 | Sc1nc2cc3c(cc2[nH]1)COCO3 | 288 to 289
37 | N#CC(=Cc1cc2cccnc2n(-c2cc(Cl)cc(Cl)c2)c1=O)c1ccccn1 | 319
38 | CSC(C)(C)C=NOC(=O)N(C)SN(C)C | 48 to 50
39 | CC(C)(C)c1cc(C=C(C#N)c2ccccn2)cc(C(C)(C)C)c1 | 90 to 93
40 | COc1ccc([C@H](Sc2ccccc2NC(C)=O)[C@@H](O)C(=O)O)cc1 | 173 to 175
41 | CCOC(=O)C1=CC(C)(C(=O)N(C)C)SC1N (centres undefined) | 122 to 124
42 | CSCC[C@H](NC(=O)[C@@H]1CCC(=O)N1)C(=O)N[C@@H](C)C(=O)N[C@H](C(=O)N[C@@H](CCCCN)C(=O)O)C(C)C | 238 to 242
43 | O=C(N[C@@H](Cc1ccccc1)[C@H](O)CCl)OCc1ccccc1 | 151 to 153
44 | CC(C)(C)c1ccc(C2=NC[C@@H](O)[C@H](c3ccccc3)O2)cc1 (racemic) | 50
45 | COc1cc2c3ccc(OC)c(OC)c3n(C(=O)c3cccc([N+](=O)[O-])c3)c2cc1OC | 187 to 191
46 | CCC(=O)c1nc(C)c(C)nc1C | 65 to 67
47 | CCc1nc2sc(S(N)(=O)=O)cc2c(=O)n1-c1ccccc1Cl | 253

More lines, now with the values ahead:

Row | melting point [°C] | Compound
48 | 184 to 186 | O=c1ccc(Br)cn1CC1(O)CCN(Cc2ccccc2F)CC1
49 | 171 to 173 | COc1ccc2c(c1)c(N1CCN(C#N)CC1)nn2S(=O)(=O)c1ccccc1
50 | 205 to 207 | N#Cc1ccc(COc2cccc(C(=O)Nc3ccc(C#N)cc3)c2)cc1
51 | 109 to 110 | COCOc1ccccc1-c1cc(-c2ccccc2C(=O)OC)c(C#N)c(N)n1
52 | 141 to 142 | CCc1cccc(C)c1NCc1nccc2c1nc(C)n2C
53 | 123 | O=C(CCCCCN1CCN(c2ccc3c(c2)CCCC3)CC1)N1Cc2ccccc2C1
54 | 143 | COc1ccc2c(c1)C(C(=O)N(Cc1ccc(CO)cc1)c1ccc(C(C)C)cc1)CCC2 (centres undefined)
55 | 56 to 67 | COc1cccc(C(=O)c2cccc(F)c2)c1
56 | 96 to 98 | Cc1nc(-c2ccc(OCc3cccc(Cl)c3)cc2)no1
57 | 210 to 212 | Fc1ccc2[nH]c3c(c2c1)CN(CCCCc1ccncc1)CC3
58 | 156 | CCCN1CCC=C(c2cccc3[nH]cc(Br)c23)C1
59 | 149 to 150 | CS(=O)c1ccc(C2=C(c3ccccc3)C(=O)OC2)cc1 (centres undefined)
60 | 214 to 217 | CCOC(=O)c1nccc(Oc2ccc3c(C(=O)O)cccc3c2)n1
61 | 146 to 147 | CCOc1nn(Cc2cccc(OCCn3ncc4ccccc4c3=O)c2)cc1CCC(=O)O
62 | 182 to 183 | CC(C)Cn1c(CNC(=O)OC(C)(C)C)c(-c2ccccc2)c2cc(CCC(=O)O)ccc2c1=O
63 | 118 | CC(O)c1ccccc1-c1ccc(C(=O)N2Cc3ccc(C(=O)NCc4cccnc4)n3Cc3ccccc32)cc1 (single isomer, unassigned; (-))
64 | 159 to 160 | COc1ccc(S(=O)(=O)Nc2cccnc2Nc2ccccc2OC)cc1
65 | 106 to 108 | Cc1ccc(C)c(OCc2ccccc2C(=O)c2cc(C)no2)c1
66 | 117 to 119 | COc1ccc2cc(COC(C)(C(=O)O)C(F)(F)F)ccc2c1 (centres undefined)
67 | 97.7 to 98.1 | CC(c1ccc2c(c1)C(=O)c1ccccc1C2=O)N1CCNCC1 (centres undefined)
68 | 99 to 102 | CC(C)c1nc(CCOC2=CCCc3ccccc32)n(C)c1Sc1cc(Cl)cc(Cl)c1
69 | 324 to 325 | O=c1[nH]c2ccc(-c3cccc([N+](=O)[O-])c3)cc2[nH]1
70 | 154 to 156 | C#Cc1cccc(Nc2ncnc3ccc(S(=O)(=O)n4ccc(C=CC(=O)OCC)c4)cc23)c1
71 | 138 to 140 | COCOc1c(-c2cncc3cccc([N+](=O)[O-])c23)ccc(OC)c1OC
72 | 250 to 252 | Cn1c(S)nc(-c2ccncc2)cc1=O
73 | 251 to 253 | Cc1cc(Oc2ccc(N)cc2)c2cc3c(cc2n1)OCO3

Row | melting point [°C] | Compound
74 | 262 to 265 | Cc1c[nH]c2cc(-c3nn(C(C)c4oc5ccccc5c(=O)c4-c4cccc(F)c4)c4ncnc(N)c34)ccc12 (centres undefined)
75 | 111 to 112 | CCCc1nn(-c2ccc(C(F)(F)F)cn2)cc1CCCCOc1c(CC(=O)O)cccc1OC
76 | 264 to 265 | Cc1ccc2c(O)c(C(=O)O)cnc2c1
77 | 62 to 63 | O=C(Cc1cccs1)NCCCSc1ccncc1
78 | 165 to 166 | Cc1c(C(=O)OCc2ccccc2)sc(NC(=O)c2cccnc2)c1C(=O)OC(C)(C)C
79 | 228 to 230 | COc1ccccc1-c1csc(Nc2ccc(C)cn2)n1
80 | 148 to 149 | Cc1nc2c(N[C@@H]3c4ccccc4C[C@H]3O)cc(C(=O)N(C)C)cn2c1C (relative stereo)
81 | 75 to 80 | Cc1oc(-c2ccccc2)nc1CCCc1ccc(CC(C(=O)O)c2cccc(-c3ccccc3)c2)cc1 (centres undefined)
82 | > 250 | C1=C(c2ccccc2)c2ccccc2C1(Cc1ccncc1)Cc1ccncc1
83 | 176 | Fc1ccc(Cn2c(NC3CCN(CCNc4nc(-c5ccccc5)cs4)CC3)nc3ccccc32)cc1
84 | 130 | O=C(O)CCCCCCCn1cnc(-c2ccccc2)c1-c1ccccc1
85 | 195 to 196 | N#Cc1cccc(-c2cc(-c3ccccc3C(=O)O)on2)c1
86 | 117 to 118 | Nc1ncccc1NCc1ccc(Oc2ccc(F)cc2)cc1
87 | 165 to 166 | CN1C(NCCCO)=NC(c2ccccc2)c2cc(Cl)ccc21 (centres undefined)
88 | 167 to 168 | COc1ccccc1N1CCN(CCn2c(=O)c3cscc3n(C)c2=O)CC1
89 | 114 to 115 | CCOC(=O)c1c(-c2ccc(F)cc2)cc(-c2cccs2)nc1C(C)C
90 | 247 to 249 | O=C1CCC(N2Cc3c(OCc4cccc(CN5CCOCC5)c4)cccc3C2=O)C(=O)N1 (centres undefined)
91 | 151 to 152 | Cc1cc(Cl)cc2c(-c3ccc(Cl)cc3)onc12
92 | 271 | N#Cc1c(N2CCN(C(=O)c3cccs3)CC2)c2sccc2n(Cc2cccc(F)c2)c1=O
93 | 135 to 136 | O=[N+]([O-])C=C(NCCCOc1cccc(CN2CCCCC2)c1)NCC(O)c1ccc(F)cc1 (centres undefined)
94 | 247 to 249 | CN(c1nc(-c2cc3ccccc3[nH]c2=O)cs1)S(=O)(=O)c1cccc(F)c1
95 | 245 to 246 | Cc1cccc(-c2[nH]c(C(C)C)nc2-c2ccc(F)c(-c3ccc(S(N)(=O)=O)cc3)c2)n1
96 | 136 to 138 | CCOc1ccc(-c2nc(OC)ccc2N2CCC(=O)N(c3ccc(OC)cc3)CC2)cc1C
97 | 194 | CCCCc1nc(SCCO)c(C(=O)O)n1Cc1ccc(-c2ccccc2C(=O)O)cc1
98 | 224 to 225 | O=C(O)Cc1ccc(NC(=O)C(COc2ccccc2)NS(=O)(=O)c2ccc(I)cc2)cc1 (racemic)
99 | 126 to 128 | CCOC(=O)C(O)c1ccc(-n2cccc2)cc1 (centres undefined)
